What was measured:
[1] = test system: EDG2-overexpressing cardiomyocytes; experiment: Shortening measurements (contractility) in single isolated cardiomyocytes after Ad-EDG2-GFP gene transfer; format: cell-based, rabbit
Protocol: (§1) Contractility of infected cardiomyocytes was measured by an electro-optical monitoring system connected to online digitalized assessment of amplitude and velocity of shortening and of relaxation. Transgene-positive cardiomyocytes were identified by co-expression of GFP under fluorescent light. After the contraction amplitude reached stability, increasing concentrations of isoproterenol were applied at constant concentrations of lysophosphatidic acid (LPA; 10^−5 mol/l); or increasing LPA concentrations were added to constant concentrations of isoproterenol (10^−8 mol/l).
(§2) In order to investigate the effects of EDG2 on cardiomyocyte contractility, fractional shortening and velocity of shortening in single, isolated cardiomyocytes from failing hearts after ex vivo gene transfer was measured.
(§3) Single calcium-tolerant ventricular cardiomyocytes were isolated from failing White New Zealand rabbit hearts. Briefly, the hearts were perfused and digested with collagenase. The isolated cardiomyocytes were cultured in modified M199 on laminin-precoated dishes (5–10 μg/cm^2) at a density of 1.5×10^5 cells per cm^2 (at 5% CO2 and 37° C.). For contraction experiments, the cells were infected with adenovirus (multiplicity of infection (moi) 1 pfu/cell) 5 hours after plating. 50–60% of the infected cardiomyocytes expressed the transgene at this titer.

human EDG2 = biological target: T1, human EDG2 (Homo sapiens, UniProt Q92633); conditions: HEK293 cells expressing the human EDG2 protein; LPA concentration dependent; cited from earlier work
T1 construct: host or cells: HEK293 cells expressing human EDG2
T1 sequence (Q92633 whole entry): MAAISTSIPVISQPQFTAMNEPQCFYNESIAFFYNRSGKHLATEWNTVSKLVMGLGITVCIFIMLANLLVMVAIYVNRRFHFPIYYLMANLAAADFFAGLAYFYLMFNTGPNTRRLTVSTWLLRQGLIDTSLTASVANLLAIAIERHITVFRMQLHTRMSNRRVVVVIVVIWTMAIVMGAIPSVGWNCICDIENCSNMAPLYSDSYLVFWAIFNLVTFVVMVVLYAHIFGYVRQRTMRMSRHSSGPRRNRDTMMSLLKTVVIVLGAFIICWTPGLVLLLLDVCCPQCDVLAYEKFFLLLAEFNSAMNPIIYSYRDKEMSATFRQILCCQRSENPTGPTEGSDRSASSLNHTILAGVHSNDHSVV

[2] = test system: control GFP cardiomyocytes; experiment: Shortening measurements (contractility) in single isolated cardiomyocytes after Ad-GFP gene transfer (control); format: cell-based, rabbit; conditions: increasing concentrations of LPA after prestimulation with isoproterenol 10^-8 mol/l; control GFP group; FIG. 2
Protocol: as §1, §2, §3

CC(C)NCC(O)c1ccc(O)c(O)c1 (stereo not drawn) [isoproterenol]
inotropic effect (fractional shortening) ([1]; increasing concentrations of isoproterenol at constant LPA 10^-5 mol/l, EDG2-overexpressing versus control, FIG. 1): significantly lower positively inotropic effect

lysophosphatidic acid [LPA]
effect on basal contractility of cardiomyocytes ([1]; LPA 10^-5 mol/l, isolated cardiomyocytes from failing hearts): does not alter basal contractility | effect on contractility of cardiomyocytes ([1]; absence of prestimulation with isoproterenol): no effect on the contractility | inotropic effect (fractional shortening) ([1]; increasing concentrations of LPA after prestimulation with isoproterenol 10^-8 mol/l, FIG. 2): significant negatively inotropic effect | response in serum response element reporter gene assay (human EDG2): elevated response | inotropic effect (fractional shortening) [2]: no effect
